According to paper PMC10110893, “[…]-derived synthetic cannabinoids inhibit T-type calcium channels with divergent effects on seizures in rodent models of epilepsy” (Frontiers in Physiology, 2023):
Like-named read-outs stand apart in the source and are kept apart here.

Assays:
[1] = tested on: T-type channels; design: method as in Kevin et al., 2022; conditions: single 10 μM concentration, FLIPR calcium flux and whole-cell patch clamp, ref Kevin et al., 2022; cited from earlier work
[2] = tested on: cannabinoid CB1 receptors; design: method as in Kevin et al., 2022; conditions: ref Kevin et al., 2022; cited from earlier work
[3] = target: T1, human Cav3.1 (Homo sapiens, UniProt O43497); assay: FLIPR calcium flux assay, Cav3.1; assay type: cell-based
T1 construct: expressed in transfected cells; host or cells: HEK293 FlpIn T-Rex cells (Invitrogen)
T1 sequence (O43497 whole entry): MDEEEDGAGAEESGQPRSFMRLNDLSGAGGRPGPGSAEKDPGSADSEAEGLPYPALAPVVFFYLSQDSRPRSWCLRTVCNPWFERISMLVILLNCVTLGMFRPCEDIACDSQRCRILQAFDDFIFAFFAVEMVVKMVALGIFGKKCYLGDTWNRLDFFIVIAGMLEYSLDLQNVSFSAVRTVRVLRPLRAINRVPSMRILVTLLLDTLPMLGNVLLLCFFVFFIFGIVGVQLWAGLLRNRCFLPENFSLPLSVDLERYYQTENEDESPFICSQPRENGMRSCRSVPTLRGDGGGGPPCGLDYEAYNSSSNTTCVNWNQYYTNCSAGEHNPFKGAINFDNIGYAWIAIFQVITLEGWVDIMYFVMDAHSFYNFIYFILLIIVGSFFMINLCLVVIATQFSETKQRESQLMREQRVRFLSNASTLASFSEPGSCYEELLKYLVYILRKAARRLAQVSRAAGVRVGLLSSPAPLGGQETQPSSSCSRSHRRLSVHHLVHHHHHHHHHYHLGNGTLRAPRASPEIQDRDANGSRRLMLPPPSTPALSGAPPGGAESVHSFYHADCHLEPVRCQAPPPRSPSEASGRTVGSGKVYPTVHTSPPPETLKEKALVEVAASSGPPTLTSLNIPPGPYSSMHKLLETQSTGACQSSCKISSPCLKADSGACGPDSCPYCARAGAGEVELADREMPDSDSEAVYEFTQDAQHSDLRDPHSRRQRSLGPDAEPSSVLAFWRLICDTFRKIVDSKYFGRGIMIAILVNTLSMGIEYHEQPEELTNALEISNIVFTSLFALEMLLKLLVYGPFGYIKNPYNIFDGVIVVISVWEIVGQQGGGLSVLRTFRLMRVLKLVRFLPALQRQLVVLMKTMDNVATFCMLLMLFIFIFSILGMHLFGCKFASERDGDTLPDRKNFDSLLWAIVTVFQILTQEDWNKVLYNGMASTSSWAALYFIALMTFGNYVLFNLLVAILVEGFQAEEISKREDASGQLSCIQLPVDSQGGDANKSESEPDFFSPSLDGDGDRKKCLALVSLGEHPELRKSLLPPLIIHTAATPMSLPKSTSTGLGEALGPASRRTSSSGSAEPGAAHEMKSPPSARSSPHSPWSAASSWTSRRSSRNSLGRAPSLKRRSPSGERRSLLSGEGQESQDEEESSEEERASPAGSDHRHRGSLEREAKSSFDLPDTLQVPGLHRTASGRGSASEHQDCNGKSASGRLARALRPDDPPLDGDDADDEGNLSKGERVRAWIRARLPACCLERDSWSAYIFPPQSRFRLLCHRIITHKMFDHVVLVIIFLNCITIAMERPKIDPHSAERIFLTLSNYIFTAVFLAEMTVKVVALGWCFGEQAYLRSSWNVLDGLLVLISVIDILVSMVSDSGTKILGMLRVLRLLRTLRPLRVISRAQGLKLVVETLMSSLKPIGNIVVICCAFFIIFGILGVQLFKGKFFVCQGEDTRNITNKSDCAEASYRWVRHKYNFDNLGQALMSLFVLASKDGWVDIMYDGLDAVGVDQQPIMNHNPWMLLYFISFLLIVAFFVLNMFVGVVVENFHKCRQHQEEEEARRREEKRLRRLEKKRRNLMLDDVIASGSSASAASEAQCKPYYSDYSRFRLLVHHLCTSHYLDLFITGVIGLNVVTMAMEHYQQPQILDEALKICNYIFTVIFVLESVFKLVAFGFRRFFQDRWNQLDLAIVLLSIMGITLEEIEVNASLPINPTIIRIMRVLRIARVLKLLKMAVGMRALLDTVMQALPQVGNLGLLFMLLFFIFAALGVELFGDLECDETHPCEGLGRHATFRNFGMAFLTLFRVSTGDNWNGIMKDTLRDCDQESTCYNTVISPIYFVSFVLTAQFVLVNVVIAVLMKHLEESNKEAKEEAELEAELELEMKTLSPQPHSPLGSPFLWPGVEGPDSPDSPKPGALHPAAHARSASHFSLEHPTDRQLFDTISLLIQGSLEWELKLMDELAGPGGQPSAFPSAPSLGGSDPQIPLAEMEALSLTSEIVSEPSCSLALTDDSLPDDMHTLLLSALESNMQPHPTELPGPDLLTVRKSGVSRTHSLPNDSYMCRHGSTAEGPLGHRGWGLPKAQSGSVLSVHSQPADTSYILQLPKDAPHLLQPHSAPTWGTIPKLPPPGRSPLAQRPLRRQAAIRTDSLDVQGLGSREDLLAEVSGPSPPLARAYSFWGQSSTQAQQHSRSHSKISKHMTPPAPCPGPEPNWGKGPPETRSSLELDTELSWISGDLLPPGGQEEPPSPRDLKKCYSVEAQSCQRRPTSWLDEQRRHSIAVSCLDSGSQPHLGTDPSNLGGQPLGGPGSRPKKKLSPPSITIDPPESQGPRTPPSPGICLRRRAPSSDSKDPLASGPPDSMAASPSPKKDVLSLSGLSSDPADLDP
Procedure: (§1) HEK293 FlpIn T-Rex cells (Invitrogen, CA, United States) stably expressing human Cav3.1, Cav3.2, or Cav3.3 were maintained in Dulbecco’s Modified Eagle Medium (DMEM) supplemented with 10% foetal bovine serum (FBS), 1% penicillin-streptomycin (P/S) at 37°C, and 5% CO2 as previously described ([Bladen et al., 2021]; [Udoh et al., 2022]). Hygromycin (80 μg/mL) and blasticidin (15 μg/mL) were used as selection antibiotics and cells were passaged at 80% confluency. For experiments, cells were resuspended in Leibovitz’s L-15 media (containing 1% FBS, 1% P/S, 15 mM glucose, 2 μg/mL tetracycline), plated in black, clear-bottomed poly-D-lysine-coated 96-well plates (90 μL) (Corning, NY, United States), and incubated overnight in ambient air at 37°C. All compounds tested in cellular assays were prepared as stock solutions in DMSO and final DMSO concentration was 0.1%.
(§2) Intracellular calcium flux was measured using a fluorometric imaging plate-reader (FLIPR) Calcium 5 Assay Kit and FlexStation 3 Microplate Reader (Molecular Devices, San Jose, United States). Calcium 5 dye (90 μL) prepared in low potassium HBSS (Thermo Fisher Scientific) containing (in mM) 145 NaCl, 22 HEPES, 0.338 Na2HPO4, 4.17 NaHCO3, 0.441 KH2PO4, 0.407 MgSO4, 0.493 MgCl2, 1.26 CaCl2, 5.56 glucose, and […] with pH 7.4 was applied to each well and incubated for 1 h at 37°C, ambient air prior to testing.
(§3) Fluorescence readings were taken at 2 s intervals (λ excitation = 485 nm, λ emission = 525 nm). Following 2 min baseline reading, 20 μL of SB2193, SB2193F, or NNC 55-0396 (10 nM—10 μM) was added to cells and read for 5 min, then CaCl2 (10 mM) was added and read for 3 min. Baseline fluorescence averaged over the 20 s interval preceding CaCl2 addition was subtracted and normalized to the vehicle response. Changes in fluorescence were measured in relative fluorescence units (RFU). All compounds were assayed in ≥ five independent experiments (n = 5–8) performed in duplicate. Order of compound addition and location on the plate were varied between replicates. Data was fit to a four-parameter non-linear dose-response curve using GraphPad Prism 8.2.0 software (La Jolla, United States) to determine IC50 values.

[4] = target: T2, human Cav3.3 (Homo sapiens, UniProt Q9P0X4); assay: FLIPR calcium flux assay, Cav3.3; assay type: cell-based
T2 construct: expressed in transfected cells; host or cells: HEK293 FlpIn T-Rex cells (Invitrogen)
T2 sequence (Q9P0X4 whole entry): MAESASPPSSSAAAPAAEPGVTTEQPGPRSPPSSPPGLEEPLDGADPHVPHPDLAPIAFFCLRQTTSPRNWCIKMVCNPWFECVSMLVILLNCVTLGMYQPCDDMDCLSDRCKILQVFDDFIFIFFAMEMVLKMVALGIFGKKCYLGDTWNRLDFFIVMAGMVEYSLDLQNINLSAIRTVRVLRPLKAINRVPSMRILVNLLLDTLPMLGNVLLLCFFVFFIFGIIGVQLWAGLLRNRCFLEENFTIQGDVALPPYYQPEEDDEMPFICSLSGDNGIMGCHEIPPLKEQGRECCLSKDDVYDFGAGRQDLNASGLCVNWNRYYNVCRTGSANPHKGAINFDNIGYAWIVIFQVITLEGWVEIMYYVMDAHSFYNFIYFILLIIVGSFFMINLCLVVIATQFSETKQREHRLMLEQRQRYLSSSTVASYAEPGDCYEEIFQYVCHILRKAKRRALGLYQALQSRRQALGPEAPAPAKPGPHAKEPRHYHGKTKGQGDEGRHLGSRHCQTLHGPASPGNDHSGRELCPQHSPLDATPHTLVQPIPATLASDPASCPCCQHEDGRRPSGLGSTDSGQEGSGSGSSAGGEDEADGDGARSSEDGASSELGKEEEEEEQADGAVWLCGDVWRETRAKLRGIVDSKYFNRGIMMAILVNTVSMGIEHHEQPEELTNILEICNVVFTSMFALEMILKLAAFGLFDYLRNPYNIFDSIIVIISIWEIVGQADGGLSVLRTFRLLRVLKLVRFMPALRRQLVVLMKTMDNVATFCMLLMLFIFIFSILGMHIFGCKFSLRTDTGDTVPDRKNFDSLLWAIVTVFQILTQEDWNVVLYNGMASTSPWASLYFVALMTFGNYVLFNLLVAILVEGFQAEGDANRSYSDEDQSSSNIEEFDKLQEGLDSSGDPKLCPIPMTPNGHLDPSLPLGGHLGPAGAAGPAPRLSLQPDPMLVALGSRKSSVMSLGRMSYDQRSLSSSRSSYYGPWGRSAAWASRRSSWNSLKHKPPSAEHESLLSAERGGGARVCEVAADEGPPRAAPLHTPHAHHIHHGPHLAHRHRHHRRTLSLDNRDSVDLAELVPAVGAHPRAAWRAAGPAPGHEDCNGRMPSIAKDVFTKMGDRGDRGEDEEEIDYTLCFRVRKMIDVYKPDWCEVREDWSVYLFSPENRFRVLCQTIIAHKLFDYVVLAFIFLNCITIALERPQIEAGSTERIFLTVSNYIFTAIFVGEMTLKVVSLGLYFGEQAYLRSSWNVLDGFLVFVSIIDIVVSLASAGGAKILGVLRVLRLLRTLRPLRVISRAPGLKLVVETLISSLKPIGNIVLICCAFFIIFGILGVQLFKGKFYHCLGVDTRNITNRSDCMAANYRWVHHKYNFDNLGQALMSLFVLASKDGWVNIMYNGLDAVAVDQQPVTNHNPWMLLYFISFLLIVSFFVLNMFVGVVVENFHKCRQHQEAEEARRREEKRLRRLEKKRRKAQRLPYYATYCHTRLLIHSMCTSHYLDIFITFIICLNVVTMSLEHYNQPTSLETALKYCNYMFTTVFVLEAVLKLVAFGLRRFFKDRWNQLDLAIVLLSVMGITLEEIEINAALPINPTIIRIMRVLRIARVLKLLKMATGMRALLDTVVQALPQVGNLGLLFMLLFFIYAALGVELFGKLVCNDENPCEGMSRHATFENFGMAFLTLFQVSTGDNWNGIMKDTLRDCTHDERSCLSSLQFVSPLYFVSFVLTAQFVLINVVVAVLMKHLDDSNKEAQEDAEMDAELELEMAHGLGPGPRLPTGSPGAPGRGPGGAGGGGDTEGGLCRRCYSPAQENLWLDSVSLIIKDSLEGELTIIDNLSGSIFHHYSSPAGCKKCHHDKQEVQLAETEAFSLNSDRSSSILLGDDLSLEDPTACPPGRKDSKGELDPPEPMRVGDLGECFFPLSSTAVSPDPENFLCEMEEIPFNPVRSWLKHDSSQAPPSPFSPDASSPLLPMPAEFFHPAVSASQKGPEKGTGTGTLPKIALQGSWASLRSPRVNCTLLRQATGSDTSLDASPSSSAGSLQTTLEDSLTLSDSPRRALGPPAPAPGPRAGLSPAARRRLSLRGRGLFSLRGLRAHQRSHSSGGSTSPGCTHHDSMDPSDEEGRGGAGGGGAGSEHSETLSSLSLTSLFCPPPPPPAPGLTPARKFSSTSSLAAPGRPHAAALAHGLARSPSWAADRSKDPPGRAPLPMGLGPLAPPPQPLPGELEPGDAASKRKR
Procedure: as §1, §2, §3

[5] = Pharmacokinetics in mouse plasma and brain after single i.p. injection; assay type: in vivo; conditions: both sexes, 10 mg/kg i.p.; for AUC: wildtype F1, mouse, in vivo, 10 mg/kg
Procedure: SB2193 and SB2193F were prepared in ethanol-Tween 80%–0.9% saline (1:1:18 ratio) and valproic acid in 0.9% saline. All doses were completely soluble in this vehicle except for the 100 mg/kg SB2193 dose, which was a suspension.
Male and female wildtype F1 mice aged 21–28 days postnatal received a single i. p. injection of 10 mg/kg SB2193 or SB2193F. At selected timepoints (15–240 min), mice were anesthetised with isoflurane, blood was collected via cardiac puncture and whole brains were harvested. Brains were snap frozen on dry ice, and blood plasma was isolated via centrifugation (4,000 g for 10 min, 4^○C). Brain and plasma samples were stored at −80°C until assayed.
Plasma samples (50 μL) were spiked with an internal standard (diazepam) and vortexed with 1 M NaOH (50 μL) and methyl tert-butyl ether (1 mL) to achieve protein precipitation. The organic layer was isolated by centrifugation (4,000 g for 3 min) before being frozen for 60 min at −80°C, evaporated to dryness using N2, and reconstituted in 30% acetonitrile and 0.1% formic acid in water for analysis. Brain hemispheres were homogenised in a 10x w/v 1:1 methanol-water solution using a Biospec Tissue-Tearor (Bartlesville, United States) and centrifuged at 20,000 g for 30 min at 4°C. Supernatant (100 μL) was collected and prepared following the same method as plasma.
SB2193 and SB2193F concentrations in brain and plasma samples were assessed by high performance liquid chromatography-tandem mass spectrometry (HPLC-MS/MS) using a Shimadzu Nexera liquid chromatograph coupled with a Shimadzu 8,030 triple quadrupole mass spectrometer (Kyoto, Japan). Samples were run through a Zorbax C18 HPLC Column equipped with a Zorbax Eclipse XDB-C8 guard column (2.1 × 50 mm, 3.5 μm particle size; Agilent, Santa Clara, United States) with an injection volume of 10 μL using a gradient elution. Mobile phases of acetonitrile and 0.1% formic acid in water were delivered at a flow rate of 0.6 mL/min over 4.16 min, with a stepwise adjustment of mobile phase concentration gradient over time to optimise ion separation.
Quantification was achieved by comparing experimental samples to plasma and brain standards prepared with known concentrations of SB2193 or SB2193F. Samples were quantified against a 7-point standard curve (R ^2 > 0.98 for both analytes).
Concentrations of SB2193 or SB2193F in plasma and brain at each timepoint were averaged and concentration-time curves were generated using GraphPad Prism. Pharmacokinetic parameters were calculated using non-compartmental analysis. The linear-log trapezoidal method was used to calculate drug exposure (area under the curve, AUC) using equations previously described ([Hawkins et al., 2017]).

[6] = wildtype F1, in vivo, ip, mouse plasma

For `CCCCCn1cc(C(=O)N2CCN(C(=O)OC(C)(C)C)CC2)c2ccccc21` [SB2193], which “inhibition of T-type channels” value [1] is on record?
The value was “strongly inhibit”.

And the “activity at cannabinoid CB1 receptors” value [2]?
The value was “minimal activity”.

And the IC50 [3]?
The IC50 was 0.75 µM.

What about the IC50 [4] of the same molecule?
The IC50 was 5.4 µM.

What about the Tmax [5, 6] of the same molecule?
Its Tmax is no more than 15 min.

What about the half-life [5, 6] of the same molecule?
Its half-life is 29 min.

And the Cmax ([5]; wildtype F1, in vivo, ip, mouse plasma, read-out: Cmax)?
Its Cmax is 750 ± 50 nM.

What about the Cmax ([5]; wildtype F1, in vivo, ip, mouse plasma, read-out: Cmax (μg/mL)) of the same molecule?
Its Cmax is 0.3 ± 0.02 µg/mL.

And the Kp ([5]; wildtype F1, in vivo, ip, mouse, read-out: brain-plasma ratio)?
Its Kp is 2.7.

What about the Tmax ([5]; wildtype F1, ip, mouse brain) of the same molecule?
The Tmax was no more than 15 min.

What about the half-life ([5]; wildtype F1, ip, mouse brain) of the same molecule?
Its half-life is 28 min.

And the Cmax ([5]; wildtype F1, ip, mouse brain, read-out: Cmax)?
The Cmax was 3000 ± 1000 nM.

And the Cmax ([5]; wildtype F1, ip, mouse brain, read-out: Cmax (μg/mL))?
The Cmax was 1.2 ± 0.4 µg/mL.

And the AUC ([5]; ip, mouse brain, brain concentration converted assuming density of 1 g/mL)?
Its AUC is 583 ng·h/mL.

What about the AUC ([5]; ip, mouse plasma) of the same molecule?
Its AUC is 217 ng·h/mL.
